Measurements as given in US20260248773A1, “POTASSIUM CHANNEL BLOCKERS OR DERIVATIVES THEREOF FOR PREVENTING, ALLEVIATING, AND/OR TREATING TISSUE DYSFUNCTION CAUSED BY TOXIC INSULTS” (priority 2022, published 2026).

Assays:
CIPN = details: 0-10 point scale; cited from earlier work
[1] = test system: chemotherapy-induced peripheral neuropathy (CIPN) caused by PTX; details: mouse, in vivo
Protocol: More specifically, initial studies were conducted on the specific case of CIPN as induced by exposure to PTX. […] 16 week old C73L/6 female mice were given a single dose of 35 mg/kg PTX (i.p.). Animals were separated into control (saline, i.p., n=4) or treatment group (2 mg/kg 4-AP daily, i.p., n=4). Pre-treatment Catwalk scores were compared to 21 days post-PTX injection.
To align with clinical treatments, mice were treated with a PTX dose of 35 mg/kg (equivalent to approximately 110 mg/m^2 and within the clinical treatment range) for four cycles, each three weeks apart.
The studies also included a 4-AP treatment arm (n=4) with a daily dose of 2 mg/kg 4-AP administered i.p. (as per most previous studies by MN and colleagues).
To evaluate detailed functional changes in gait, the CatWalk™ (Noldus Information Technology, Wageningen, The Netherlands) method was implemented.
Sciatic nerve samples were harvested and resin-embedded, sectioned and imaged using transmission electron microscopy. Images were analyzed to calculate markers of peripheral neuropathy, namely: axon counts, fiber size, myelination (g ratio), and circumferential irregularity (FIG. 2).

[2] = test system: glial fibrillary acidic protein (GFAP); assay: GFAP immunofluorescence in corpus callosum after PTX with or without 4-AP (Example 9); format: in vivo; details: E0771 tumor-bearing mice; PTX 35 mg/kg day one
Protocol: To determine whether 4-AP treatment can prevent PTX-induced increases in a reactive inflammatory response in the brain, as detected by increased expression of glial fibrillary acidic protein (GFAP), 16-week-old female C57BL/6 mice were inoculated with a triple negative murine breast cancer cell line E0771. When tumors were palpable, the mice were injected with either paclitaxel and water, 4-AP, both, or saline as a control. Paclitaxel (35 mg/kg) was injected on day one and 4-AP and water were injected daily. The mice were sacrificed on day nine and their brains were perfused and harvested. Brains were cryosectioned coronally.
The mouse brain sections were stained with anti-GFAP antibodies, followed by a fluorescent secondary, for analysis via immunofluorescence.

kidney = assay: Kidney histology (H&E) after PTX with or without 4-AP (Example 8); format: in vivo, mice; details: PTX treated, daily saline
Protocol: To examine effects on the kidney histological studies were conducted on this tissue. Mice received PTX on day 0 of the experiment, and half of those mice also were injected with 4-AP at this time, and every day thereafter, at a dosage of 2 mg/kg. Mice not receiving 4-AP were injected with saline to control for any stress induced by daily injections. Experimental groups also included mice receiving no PTX treatment, and treated only with daily injections of saline. Mice were sacrificed after 1 week. Mice were perfused with 4% paraformaldehyde and kidneys were sectioned and stained with haematoxylin & eosin (H&E).

| SMILES | average reduction in pain (CIPN) [point] | tolerability of PTX dose [1] | expression of GFAP after PTX, corpus callosum [2] | kidney histology after PTX, H&E staining (kidney) |
| --- | --- | --- | --- | --- |
| CNCC[C@H](Oc1cccc2ccccc12)c1cccs1 [duloxetine] | 0.72 |  |  |  |
| CC(=O)O[C@H]1C(=O)[C@@]2(C)[C@H]([C@H](OC(=O)c3ccccc3)[C@]3(O)C[C@H](OC(=O)[C@H](O)[C@@H](NC(=O)c4ccccc4)c4ccccc4)C(C)=C1C3(C)C)[C@]1(OC(C)=O)CO[C@@H]1C[C@@H]2O [PTX, paclitaxel] |  | tolerated the dose | increased expression of GFAP | Loss of brush borders (dark grey arrows), nuclear dropout (grey arrow), and blebbing of tubular epithelial cells |
